Target: recombinant human SAE enzyme (Homo sapiens (Human), UniProt Q9UBT2)
Assay: SAE HTRF enzyme assay
Type: biochemical
Conditions: for inhibition at 0.111 µM: read-out: Percent Inhibition
Outline: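 Enzyme reaction: 50 mM HEPES pH 7.5, 5 mM MgCl2, 250 μM GSH, 0.05% BSA, 0.5 μM ATP, 0.01 μM Ubc9-GST, 0.125 μM Sumo-Flag, 0.11 nM SAE; 105 min, 24° C. Stop/detect, 2 h, then HTRF. % inh or IC50.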

[1] = SAE inhibition at compound concentration 0.111 μM
[2] = SAE inhibition, class symbols, legend in nM

Chain of recombinant human SAE enzyme (Q9UBT2 whole entry): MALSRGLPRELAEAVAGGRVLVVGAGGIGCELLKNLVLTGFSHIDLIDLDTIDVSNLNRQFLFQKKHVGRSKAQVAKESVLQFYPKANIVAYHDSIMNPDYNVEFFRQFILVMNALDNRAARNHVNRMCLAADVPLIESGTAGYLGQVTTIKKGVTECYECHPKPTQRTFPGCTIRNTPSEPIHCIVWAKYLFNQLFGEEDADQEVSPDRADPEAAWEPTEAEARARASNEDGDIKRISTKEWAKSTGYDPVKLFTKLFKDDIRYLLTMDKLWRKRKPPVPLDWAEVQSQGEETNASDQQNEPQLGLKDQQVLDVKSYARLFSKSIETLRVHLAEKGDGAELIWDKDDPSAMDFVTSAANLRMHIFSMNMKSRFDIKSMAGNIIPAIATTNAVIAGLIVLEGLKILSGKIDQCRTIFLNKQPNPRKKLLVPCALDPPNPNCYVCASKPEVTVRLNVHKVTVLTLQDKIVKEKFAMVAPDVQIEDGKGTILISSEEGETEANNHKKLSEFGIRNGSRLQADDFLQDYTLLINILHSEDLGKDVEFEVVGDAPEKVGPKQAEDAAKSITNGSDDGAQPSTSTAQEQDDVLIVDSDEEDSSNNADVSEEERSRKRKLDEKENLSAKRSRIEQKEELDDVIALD
Chain of recombinant human SAE enzyme (Q9UBE0 whole entry partner): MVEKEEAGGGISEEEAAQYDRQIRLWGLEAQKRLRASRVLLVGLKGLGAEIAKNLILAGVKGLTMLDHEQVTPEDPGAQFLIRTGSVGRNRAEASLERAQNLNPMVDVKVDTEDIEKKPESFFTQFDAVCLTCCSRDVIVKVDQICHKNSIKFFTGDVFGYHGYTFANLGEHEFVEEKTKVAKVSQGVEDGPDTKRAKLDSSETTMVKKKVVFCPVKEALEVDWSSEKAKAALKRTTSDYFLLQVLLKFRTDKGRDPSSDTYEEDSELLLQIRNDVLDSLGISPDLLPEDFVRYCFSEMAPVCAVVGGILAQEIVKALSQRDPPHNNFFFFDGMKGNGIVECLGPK

SMILES | Percent Inhibition [1] | IC50 [2] | Percent Inhibition (Concentration 0.111 μM) | IC50 (class symbols A/B/C) | inhibition at 0.111 µM (Concentration 0.111 μM)
Cc1nc2c(s1)[C@H](c1cc(C(=O)c3cncnc3N[C@@H]3C[C@H](COS(N)(=O)=O)[C@@H](O)C3)sc1C)OCC2 (single isomer, unassigned) [I-305b, [(1R,2S,4R)-2-hydroxy-4-{[5-({5-methyl-4-[(4S)-2-methyl-6,7-dihydro-4H-pyrano[4,3-d][1,3]thiazol-4-yl]-2-thienyl}carbonyl)pyrimidin-4-yl]amino}cyclopentyl]methyl sulfamate or [(1R,2S,4R)-2-hydroxy-4-{[5-({5-methyl-4-[(4R)-2-methyl-6,7-dihydro-4H-pyrano[4,3-d][1,3]thiazol-4-yl]-2-thienyl}carbonyl)pyrimidin-4-yl]amino}cyclopentyl]methyl sulfamate] | 98% | < 10 nM | – | – | –
NS(=O)(=O)OC[C@H]1C[C@@H](Nc2ncncc2C(=O)c2cc([C@H](O)C3CCCCC3)c(Cl)s2)C[C@@H]1O (mixture of isomers) [I-172, [(1R,2S,4R)-4-{[5-({5-chloro-4-[(R)-cyclohexyl(hydroxy)methyl]-2-thienyl}carbonyl)pyrimidin-4-yl]amino}-2-hydroxycyclopentyl]methyl sulfamate and [(1R,2S,4R)-4-{[5-({5-chloro-4-[(S)-cyclohexyl(hydroxy)methyl]-2-thienyl}carbonyl)pyrimidin-4-yl]amino}-2-hydroxycyclopentyl]methyl sulfamate] | – | – | 88 | 10 to 100 nM | –
C[C@@]1(c2csc(C(=O)c3cncnc3N[C@@H]3C[C@H](COS(N)(=O)=O)[C@@H](O)C3)c2)NCCc2ccc(Cl)cc21 (mixture of isomers) [I-321, [(1R,2S,4R)-4-{[5-({4-[(1R)-7-chloro-1-methyl-1,2,3,4-tetrahydroisoquinolin-1-yl]-2-thienyl}carbonyl)pyrimidin-4-yl]amino}-2-hydroxycyclopentyl]methyl sulfamate and [(1R,2S,4R)-4-{[5-({4-[(1S)-7-chloro-1-methyl-1,2,3,4-tetrahydroisoquinolin-1-yl]-2-thienyl}carbonyl)pyrimidin-4-yl]amino}-2-hydroxycyclopentyl]methyl sulfamate] | 94% | < 10 nM | – | – | –
NS(=O)(=O)OC[C@H]1C[C@@H](Nc2ncncc2C(=O)c2ccc(CO)o2)C[C@@H]1O [I-206, [(1R,2S,4R)-2-hydroxy-4-({5-[5-(hydroxymethyl)-2-furoyl]pyrimidin-4-yl}amino)cyclopentyl]methyl sulfamate] | – | – | – | 100 to 1000 nM | 49%
Cc1sc(C(=O)c2cncnc2N[C@@H]2C[C@H](COS(N)(=O)=O)[C@@H](O)C2)cc1C1OCCc2ccc(C(F)(F)F)nc21 (single isomer, unassigned) [I-297a, [(1R,2S,4R)-2-hydroxy-4-{[5-({5-methyl-4-[(8S)-2-(trifluoromethyl)-5,8-dihydro-6H-pyrano[3,4-b]pyridin-8-yl]-2-thienyl}carbonyl)pyrimidin-4-yl]amino}cyclopentyl]methyl sulfamate or [(1R,2S,4R)-2-hydroxy-4-{[5-({5-methyl-4-[(8R)-2-(trifluoromethyl)-5,8-dihydro-6H-pyrano[3,4-b]pyridin-8-yl]-2-thienyl}carbonyl)pyrimidin-4-yl]amino}cyclopentyl]methyl sulfamate] | 31% | 100 to 1000 nM | – | – | –
NS(=O)(=O)OC[C@H]1C[C@@H](Nc2ncncc2C(=O)c2cc([C@@H]3OCCc4ccccc43)cs2)C[C@@H]1O (single isomer, unassigned) [I-254a, [(1R,2S,4R)-4-{[5-({4-[(1R)-3,4-dihydro-1H-isochromen-1-yl]-2-thienyl}carbonyl)pyrimidin-4-yl]amino}-2-hydroxycyclopentyl]methyl sulfamate or [(1R,2S,4R)-4-{[5-({4-[(1S)-3,4-dihydro-1H-isochromen-1-yl]-2-thienyl}carbonyl)pyrimidin-4-yl]amino}-2-hydroxycyclopentyl]methyl sulfamate] | – | – | 81 | 10 to 100 nM | –
NS(=O)(=O)OC[C@H]1C[C@@H](Nc2ncncc2C(=O)c2cc(CSc3ccccc3)cs2)C[C@@H]1O [I-177, [(1R,2S,4R)-2-hydroxy-4-{[5-({4-[(phenylsulfanyl)methyl]-2-thienyl}carbonyl)pyrimidin-4-yl]amino}cyclopentyl]methyl sulfamate] | – | – | – | 10 to 100 nM | 85%
Cc1nn(Cc2csc(C(=O)c3cncnc3N[C@@H]3C[C@H](COS(N)(=O)=O)[C@@H](O)C3)c2)c2cnccc12 [I-160, [(1R,2S,4R)-2-hydroxy-4-{[5-({4-[(3-methyl-1H-pyrazolo[3,4-c]pyridin-1-yl)methyl]-2-thienyl}carbonyl)pyrimidin-4-yl]amino}cyclopentyl]methyl sulfamate] | – | – | – | < 10 nM | 92%
NS(=O)(=O)OC[C@H]1C[C@@H](Nc2ncncc2C(=O)c2cc([C@@H]3OCC(F)(F)c4ccccc43)cs2)C[C@@H]1O (single isomer, unassigned) [I-293a, [(1R,2S,4R)-4-{[5-({4-[(1R)-4,4-difluoro-3,4-dihydro-1H-isochromen-1-yl]-2-thienyl}carbonyl)pyrimidin-4-yl]amino}-2-hydroxycyclopentyl]methyl sulfamate or [(1R,2S,4R)-4-{[5-({4-[(1S)-4,4-difluoro-3,4-dihydro-1H-isochromen-1-yl]-2-thienyl}carbonyl)pyrimidin-4-yl]amino}-2-hydroxycyclopentyl]methyl sulfamate] | 57% | 10 to 100 nM | – | – | –
NS(=O)(=O)OC[C@H]1C[C@@H](Nc2ncncc2C(=O)c2cc(CO)c(Cl)s2)C[C@@H]1O [I-211, {(1R,2S,4R)-4-[(5-{[5-Chloro-4-(hydroxymethyl)-2-thienyl]carbonyl}pyrimidin-4-yl)amino]-2-hydroxycyclopentyl}methyl sulfamate] | – | – | – | 100 to 1000 nM | 39%
NS(=O)(=O)OC[C@H]1C[C@@H](Nc2ncncc2C(=O)c2cc([C@@H]3OCCc4cc(Cl)ccc43)cs2)C[C@@H]1O [I-357, [(1R,2S,4R)-4-[[5-[4-[(1R)-6-chloroisochroman-1-yl]thiophene-2-carbonyl]pyrimidin-4-yl]amino]-2-hydroxy-cyclopentyl]methyl sulfamate and [(1R,2S,4R)-4-[[5-[4-[(1S)-6-chloroisochroman-1-ylthiophene-2-carbonyl]pyrimidin-4-yl]amino}-2-hydroxy-cyclopentyl]methyl sulfamate] | 97% | < 10 nM | – | – | –
NS(=O)(=O)OC[C@H]1C[C@@H](Nc2ncncc2C(=O)c2cc(CN3CCc4sccc4C3)cs2)C[C@@H]1O [I-168, {(1R,2S,4R)-4-[(5-{[4-(6,7-dihydrothieno[3,2-c]pyridin-5(4H)-ylmethyl)-2-thienyl]carbonyl}pyrimidin-4-yl)amino]-2-hydroxycyclopentyl}methyl sulfamate] | – | – | – | 10 to 100 nM | 90%
NS(=O)(=O)OC[C@H]1C[C@@H](Nc2ncncc2C(=O)c2cc([C@@H]3OCCc4ccccc43)cs2)C[C@@H]1O.NS(=O)(=O)OC[C@H]1C[C@@H](Nc2ncncc2C(=O)c2cc([C@H]3OCCc4ccccc43)cs2)C[C@@H]1O (mixture of isomers) [I-254, [(1R,2S,4R)-4-{[5-({4-[(1R)-3,4-dihydro-1H-isochromen-1-yl]-2-thienyl}carbonyl)pyrimidin-4-yl]amino}-2-hydroxycyclopentyl]methyl sulfamate and [(1R,2S,4R)-4-{[5-({4-[(1S)-3,4-dihydro-1H-isochromen-1-yl]-2-thienyl}carbonyl)pyrimidin-4-yl]amino}-2-hydroxycyclopentyl]methyl sulfamate] | – | – | 99 | < 10 nM | –
Cc1sc(C(=O)c2cncnc2N[C@@H]2C[C@H](COS(N)(=O)=O)[C@@H](O)C2)cc1[C@@H]1OCCc2cccnc21 (single isomer, unassigned) [I-285a, [(1R,2S,4R)-4-{[5-({4-[(8S)-5,8-dihydro-6H-pyrano[3,4-b]pyridin-8-yl]-5-methyl-2-thienyl}carbonyl)pyrimidin-4-yl]amino}-2-hydroxycyclopentyl]methyl sulfamate or [(1R,2S,4R)-4-{[5-({4-[(8R)-5,8-dihydro-6H-pyrano[3,4-b]pyridin-8-yl]-5-methyl-2-thienyl}carbonyl)pyrimidin-4-yl]amino}-2-hydroxycyclopentyl]methyl sulfamate] | 101% | < 10 nM | – | – | –
NS(=O)(=O)OC[C@H]1C[C@@H](Nc2ncncc2C(=O)c2cc(Cc3cccc(Cl)c3)c([C@@H]3CCCO3)s2)C[C@@H]1O (single isomer, unassigned) [I-41b, [(1R,2S,4R)-4-{[5-({4-(3-chlorobenzyl)-5-[(2S)-tetrahydrofuran-2-yl]-2-thienyl}carbonyl)pyrimidin-4-yl]amino}-2-hydroxycyclopentyl]methyl sulfamate or [(1R,2S,4R)-4-{[5-({4-(3-chlorobenzyl)-5-[(2R)-tetrahydrofuran-2-yl]-2-thienyl}carbonyl)pyrimidin-4-yl]amino}-2-hydroxycyclopentyl]methyl sulfamate] | – | – | 98 | < 10 nM | –
CC(O)(c1cccc(Br)c1)c1csc(C(=O)c2cncnc2N[C@@H]2C[C@H](COS(N)(=O)=O)[C@@H](O)C2)c1 (single isomer, unassigned) [I-3b, [(1R,2S,4R)-4-{[5-({4-[(1R)-1-(3-bromophenyl)-1-hydroxyethyl]-2-thienyl}carbonyl)pyrimidin-4-yl]amino}-2-hydroxycyclopentyl]methyl sulfamate or [(1R,2S,4R)-4-{[5-({4-[(1S)-1-(3-bromophenyl)-1-hydroxyethyl]-2-thienyl}carbonyl)pyrimidin-4-yl]amino}-2-hydroxycyclopentyl]methyl sulfamate] | – | – | 100 | < 10 nM | –

— patent US10780090B2, “Heteroaryl compounds useful as inhibitors of SUMO activating enzyme” (Millennium Pharmaceuticals, Inc., priority 2014, dated 2020)
